Assay results taken from patent US5270190A, “Method for producing (R)-malic acid from maleic acid using microbial maleate hydratase” (priority 1992, dated 1993).
Like-named read-outs stand apart in the source and are kept apart here.

Legend:
[1] = tested on: Brevibacterium helvolum ATCC 11822; test: Growth in basal medium with additions; assay type: cell-based; settings: 1% addition to basal medium
Description: (§1) In order to obtain a culture containing a maleate hydratase activity by cultivating microorganism capable of producing this enzyme, usual cultivation methods can be used; namely cultivating in a nutrient medium containing organic compounds as a carbon source, organic and/or inorganic compounds as a nitrogen source, and mineral salts, at pH 4 to 10, at 10° to 40° C. It is preferred to add at least one compound selected from the group consisting of maleic acid and citraconic acid since a culture having high maleate hydratase activity can be obtained by the addition of such compound. The concentration of these compounds to be added in a medium is generally from about 0.1 to 3% by weight, preferably from about 0.5 to 2% by weight. The effect of these compounds is shown in Table 1 hereinbelow and Examples 1 and 2.
(§2) *Basal Medium: NH4 Cl 0.1%, KH2 PO4 0.14%, Na2

maleate hydratase = test: Induction of maleate hydratase by additions to the basal medium (specific activity of the cell sonicate supernatant); assay type: cell-based, Brevibacterium helvolum ATCC 11822; settings: for Specific Activity (amount of (R)-malic acid formed): crude enzyme reacted with maleate at 30° C. for 60 minutes, pH 7.2
Description: as §1, §2
**Determined by the amount of (R)malic acid formed when reaction mixture
(total volume 2,000 μl, pH 7.2) containing 50 mM TrisHCl buffer (1,700
μl), 100 mM maleate (200 μl), and crude enzyme preparation (cells
sonicate supernatant, 100 μl) was reacted at 30° C. for 60

[2] = tested on: microbial maleate hydratase; assay type: biochemical
[3] = tested on: microbial maleate hydratase; test: Action and specificity of the enzyme (substrate); assay type: biochemical
Description: The enzyme catalyzes a reaction in which maleic acid is hydrated to form (R)-malic acid.

For C/C(=C/C(=O)O)C(=O)O [Citraconic Acid, citraconic acid], the “Growth at 68 Hours O.D. (660 nm)” value [1] was 4.1, the “Specific Activity (amount of (R)-malic acid formed)” value (maleate hydratase; 1% addition to basal medium) was 3.13 and the “Induction Fold” value (maleate hydratase; 1% addition to basal medium, relative to no addition (1.0)) was 4.8.

In the case of O=C(O)CN(CCN(CC(=O)O)CC(=O)O)CC(=O)O [EDTA], the “inhibition of enzyme activity” value [2] is reported as “no inhibition”.

O=C(O)CI [IAA, iodoacetic acid] was tested, and the “inhibition of enzyme activity” value [2] was 12%.

In the case of O=C(O)/C=C\C(=O)O [Maleic Acid, maleic acid], the “Growth at 68 Hours O.D. (660 nm)” value [1] is reported as 4.5, the “Induction Fold” value (maleate hydratase; 1 %) is reported as 3.9 and the “Specific Activity (amount of (R)-malic acid formed)” value (maleate hydratase; 1% addition to basal medium) is reported as 2.56.

For CCN1C(=O)C=CC1=O [NEM, N-ethylmaleimide], the “inhibition of enzyme activity” value ([2]; inhibitor at 10 mM) was 33%.

For [Na+].[O-][I+3]([O-])([O-])[O-] [NaIO4, sodium metaperiodate], the “inhibition of enzyme activity” value ([2]; inhibitor concentration 1 mM) was 17%.

In the case of O=C(O)c1cc[c]([Hg][Cl])cc1 [PCMB, p-chloromercuribenzoic acid], the “inhibition of enzyme activity” value ([2]; inhibitor concentration 1 mM) is reported as 100%.

For O=S(=O)(F)Cc1ccccc1 [PMSF, phenylmethylsulfonylfluoride], the “inhibition of enzyme activity” value ([2]; inhibitor concentration 1 mM) was “no inhibition”.

For O=C(O)/C=C/C(=O)O [fumaric acid], the “action of the enzyme on the substance as substrate” value [3] was “does not act”.
